Source: patent US12398157B2, “Energy-efficient solvent-free method for producing metal chelates” (TECHNISCHE UNIVERSITAT CLAUSTHAL, priority 2017, dated 2025)

Experiment: particle size distribution by laser light scattering
Type: physicochemical
Settings: volumetric, product of working example 1
Excerpt: The product is obtained in a particularly finely divided form with a narrow particle size distribution. The latter can, for example, be seen from the ratio of the D values, D99, D90, D50, (D10). The D value indicates the percentage of particles smaller than the diameter given as the respective D value. The percentage is given as index, i.e.: D90= . . . means “90% of the particles have a (volumetrically determined) diameter of less than . . . ”. The associated data are obtained by means of laser light scattering.
The particle size distribution of the zinc bisglycinate produced as described in working example 1 and shown in FIG. 2a was examined more closely by means of laser light scattering. The results are shown in graph form in FIG. 2c.

- D10 (10% of the particles have diameters of less than): 0.86 μm
- D50 (50% of the particles have diameters of less than): 3.41 μm
- D90 (90% of the particles have diameters of less than): 6.82 μm
- D99 (99% of the particles have diameters of less than): 10.00 μm
SMILES: NCC(=O)[O-].NCC(=O)[O-].[Zn+2] [zinc bisglycinate, bis(glycinato-N,O)zinc]
